Test results published in the supplement of paper PMC13386468.

Legend:
Assay in all cases: IC50 for competition of protein binding to Kinobeads
Details in all cases: assay detail: Kinobeads competition in P. falciparum blood-stage lysate
[1] = target: Q8IEK1 (UniProt O96935)
[2] = target: UniProt C0H4K8
[3] = target: UniProt C0H4S8
[4] = target: UniProt C0H5A0
[5] = target: UniProt C6KT64
[6] = target: UniProt O15770
[7] = target: UniProt O77330
[8] = target: UniProt O77375
[9] = target: UniProt O96217
[10] = target: UniProt O96271
[11] = target: UniProt O97256
[12] = target: UniProt Q7K6A9
[13] = target: UniProt Q7KQL8
[14] = target: UniProt Q7KQM0
[15] = target: UniProt Q8I0U8
[16] = target: UniProt Q8I1R6
[17] = target: UniProt Q8I2H3
[18] = target: UniProt Q8I3K7
[19] = target: UniProt Q8I3T8
[20] = target: UniProt Q8I423
[21] = target: UniProt Q8I4V8
[22] = target: UniProt Q8I5A9
[23] = target: UniProt Q8I5C6
[24] = target: UniProt Q8I5D5
[25] = target: UniProt Q8I5H7
[26] = target: UniProt Q8I5Q6
[27] = target: UniProt Q8I5R7
[28] = target: UniProt Q8I6T2
[29] = target: UniProt Q8I6T3
[30] = target: UniProt Q8I719
[31] = target: UniProt Q8IAL6
[32] = target: UniProt Q8IAV6
[33] = target: UniProt Q8IC33
[34] = target: UniProt Q8IC35
[35] = target: UniProt Q8ID42
[36] = target: UniProt Q8IDS6
[37] = target: UniProt Q8IEE5
[38] = target: UniProt Q8IEU2
[39] = target: UniProt Q8IHU0
[40] = target: UniProt Q8II27
[41] = target: UniProt Q8II71
[42] = target: UniProt Q8IIM5
[43] = target: UniProt Q8IJD4
[44] = target: UniProt Q8IJW4
[45] = target: UniProt Q8IJX8
[46] = target: UniProt Q8IKL5
[47] = target: UniProt Q8IL22
[48] = target: UniProt Q8ILC8
[49] = target: UniProt Q8ILQ8
[50] = target: UniProt Q8ILV2
[51] = target: UniProt Q9TY98

Measured: IC50
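Further: native unpurified kinases from lysate captured on beads bearing immobilized kinase inhibitors, with bead-bound kinases quantified by mass spectrometry across compound doses.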

UniProt Q7KQL8, sequence (Q7KQL8 whole entry): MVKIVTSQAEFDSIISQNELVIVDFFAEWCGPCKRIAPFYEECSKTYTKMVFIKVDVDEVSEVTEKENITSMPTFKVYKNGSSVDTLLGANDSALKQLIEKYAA
UniProt Q8I4V8, sequence (Q8I4V8 whole entry): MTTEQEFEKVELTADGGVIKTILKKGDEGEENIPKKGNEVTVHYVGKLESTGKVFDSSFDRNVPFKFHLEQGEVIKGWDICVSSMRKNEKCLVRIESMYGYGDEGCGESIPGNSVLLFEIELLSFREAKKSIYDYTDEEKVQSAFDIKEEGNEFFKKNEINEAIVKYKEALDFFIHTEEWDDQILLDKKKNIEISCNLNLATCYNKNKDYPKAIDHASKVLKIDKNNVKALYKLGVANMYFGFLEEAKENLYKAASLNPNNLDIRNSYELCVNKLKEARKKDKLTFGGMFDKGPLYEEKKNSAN
Q8IEK1, sequence (O96935 whole entry, one chain of several): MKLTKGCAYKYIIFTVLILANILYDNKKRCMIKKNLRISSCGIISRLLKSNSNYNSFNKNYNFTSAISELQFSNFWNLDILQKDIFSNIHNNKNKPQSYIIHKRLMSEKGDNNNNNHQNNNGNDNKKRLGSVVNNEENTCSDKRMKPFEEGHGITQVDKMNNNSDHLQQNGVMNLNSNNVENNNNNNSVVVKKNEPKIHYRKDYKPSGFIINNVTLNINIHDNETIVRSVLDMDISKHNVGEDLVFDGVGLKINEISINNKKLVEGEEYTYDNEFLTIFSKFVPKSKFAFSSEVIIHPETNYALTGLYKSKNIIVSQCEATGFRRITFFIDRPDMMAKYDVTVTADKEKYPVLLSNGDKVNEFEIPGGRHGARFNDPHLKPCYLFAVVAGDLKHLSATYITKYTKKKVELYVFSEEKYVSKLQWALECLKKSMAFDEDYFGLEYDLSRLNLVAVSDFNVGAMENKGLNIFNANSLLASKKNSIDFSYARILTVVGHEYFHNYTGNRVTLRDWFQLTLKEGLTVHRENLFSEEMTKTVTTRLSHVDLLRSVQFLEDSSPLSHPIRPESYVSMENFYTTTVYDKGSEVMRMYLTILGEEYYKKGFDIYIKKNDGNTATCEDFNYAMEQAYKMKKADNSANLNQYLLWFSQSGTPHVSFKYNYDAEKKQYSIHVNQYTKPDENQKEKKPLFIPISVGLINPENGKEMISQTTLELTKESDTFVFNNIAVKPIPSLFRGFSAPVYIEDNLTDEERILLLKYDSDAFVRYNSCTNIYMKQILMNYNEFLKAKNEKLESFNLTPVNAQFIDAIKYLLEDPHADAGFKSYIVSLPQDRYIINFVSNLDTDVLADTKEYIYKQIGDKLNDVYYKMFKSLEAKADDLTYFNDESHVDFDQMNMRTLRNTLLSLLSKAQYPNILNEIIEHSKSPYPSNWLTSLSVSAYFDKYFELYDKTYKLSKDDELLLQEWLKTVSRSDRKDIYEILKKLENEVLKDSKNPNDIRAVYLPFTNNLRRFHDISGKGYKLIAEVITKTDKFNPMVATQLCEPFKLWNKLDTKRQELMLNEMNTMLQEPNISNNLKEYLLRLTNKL
UniProt Q8IJD4, sequence (Q8IJD4 whole entry): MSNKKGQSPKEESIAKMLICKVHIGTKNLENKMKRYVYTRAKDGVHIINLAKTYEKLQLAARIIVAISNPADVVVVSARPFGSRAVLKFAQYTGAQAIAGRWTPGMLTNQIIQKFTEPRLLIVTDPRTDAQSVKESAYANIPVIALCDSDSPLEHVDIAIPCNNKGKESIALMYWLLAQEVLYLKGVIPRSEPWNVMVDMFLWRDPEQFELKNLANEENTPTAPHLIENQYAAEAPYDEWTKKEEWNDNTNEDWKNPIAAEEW
UniProt Q7KQM0, sequence (Q7KQM0 whole entry): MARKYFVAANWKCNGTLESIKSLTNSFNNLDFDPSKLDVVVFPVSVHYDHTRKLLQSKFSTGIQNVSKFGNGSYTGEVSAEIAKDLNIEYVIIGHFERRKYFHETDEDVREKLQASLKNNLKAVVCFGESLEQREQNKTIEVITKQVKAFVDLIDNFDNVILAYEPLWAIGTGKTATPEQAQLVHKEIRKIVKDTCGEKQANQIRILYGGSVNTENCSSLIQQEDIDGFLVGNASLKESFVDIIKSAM
UniProt Q8I423, sequence (Q8I423 whole entry): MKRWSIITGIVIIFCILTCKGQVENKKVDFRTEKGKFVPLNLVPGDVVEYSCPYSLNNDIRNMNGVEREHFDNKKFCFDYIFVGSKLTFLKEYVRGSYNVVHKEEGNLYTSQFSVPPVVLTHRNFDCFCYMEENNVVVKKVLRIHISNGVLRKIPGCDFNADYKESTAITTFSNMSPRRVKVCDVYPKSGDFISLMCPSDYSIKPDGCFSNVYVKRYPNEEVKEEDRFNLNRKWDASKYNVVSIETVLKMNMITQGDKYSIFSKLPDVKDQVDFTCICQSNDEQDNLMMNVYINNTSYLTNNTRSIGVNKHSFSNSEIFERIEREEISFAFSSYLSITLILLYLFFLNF
UniProt Q8I0U8, sequence (Q8I0U8 whole entry): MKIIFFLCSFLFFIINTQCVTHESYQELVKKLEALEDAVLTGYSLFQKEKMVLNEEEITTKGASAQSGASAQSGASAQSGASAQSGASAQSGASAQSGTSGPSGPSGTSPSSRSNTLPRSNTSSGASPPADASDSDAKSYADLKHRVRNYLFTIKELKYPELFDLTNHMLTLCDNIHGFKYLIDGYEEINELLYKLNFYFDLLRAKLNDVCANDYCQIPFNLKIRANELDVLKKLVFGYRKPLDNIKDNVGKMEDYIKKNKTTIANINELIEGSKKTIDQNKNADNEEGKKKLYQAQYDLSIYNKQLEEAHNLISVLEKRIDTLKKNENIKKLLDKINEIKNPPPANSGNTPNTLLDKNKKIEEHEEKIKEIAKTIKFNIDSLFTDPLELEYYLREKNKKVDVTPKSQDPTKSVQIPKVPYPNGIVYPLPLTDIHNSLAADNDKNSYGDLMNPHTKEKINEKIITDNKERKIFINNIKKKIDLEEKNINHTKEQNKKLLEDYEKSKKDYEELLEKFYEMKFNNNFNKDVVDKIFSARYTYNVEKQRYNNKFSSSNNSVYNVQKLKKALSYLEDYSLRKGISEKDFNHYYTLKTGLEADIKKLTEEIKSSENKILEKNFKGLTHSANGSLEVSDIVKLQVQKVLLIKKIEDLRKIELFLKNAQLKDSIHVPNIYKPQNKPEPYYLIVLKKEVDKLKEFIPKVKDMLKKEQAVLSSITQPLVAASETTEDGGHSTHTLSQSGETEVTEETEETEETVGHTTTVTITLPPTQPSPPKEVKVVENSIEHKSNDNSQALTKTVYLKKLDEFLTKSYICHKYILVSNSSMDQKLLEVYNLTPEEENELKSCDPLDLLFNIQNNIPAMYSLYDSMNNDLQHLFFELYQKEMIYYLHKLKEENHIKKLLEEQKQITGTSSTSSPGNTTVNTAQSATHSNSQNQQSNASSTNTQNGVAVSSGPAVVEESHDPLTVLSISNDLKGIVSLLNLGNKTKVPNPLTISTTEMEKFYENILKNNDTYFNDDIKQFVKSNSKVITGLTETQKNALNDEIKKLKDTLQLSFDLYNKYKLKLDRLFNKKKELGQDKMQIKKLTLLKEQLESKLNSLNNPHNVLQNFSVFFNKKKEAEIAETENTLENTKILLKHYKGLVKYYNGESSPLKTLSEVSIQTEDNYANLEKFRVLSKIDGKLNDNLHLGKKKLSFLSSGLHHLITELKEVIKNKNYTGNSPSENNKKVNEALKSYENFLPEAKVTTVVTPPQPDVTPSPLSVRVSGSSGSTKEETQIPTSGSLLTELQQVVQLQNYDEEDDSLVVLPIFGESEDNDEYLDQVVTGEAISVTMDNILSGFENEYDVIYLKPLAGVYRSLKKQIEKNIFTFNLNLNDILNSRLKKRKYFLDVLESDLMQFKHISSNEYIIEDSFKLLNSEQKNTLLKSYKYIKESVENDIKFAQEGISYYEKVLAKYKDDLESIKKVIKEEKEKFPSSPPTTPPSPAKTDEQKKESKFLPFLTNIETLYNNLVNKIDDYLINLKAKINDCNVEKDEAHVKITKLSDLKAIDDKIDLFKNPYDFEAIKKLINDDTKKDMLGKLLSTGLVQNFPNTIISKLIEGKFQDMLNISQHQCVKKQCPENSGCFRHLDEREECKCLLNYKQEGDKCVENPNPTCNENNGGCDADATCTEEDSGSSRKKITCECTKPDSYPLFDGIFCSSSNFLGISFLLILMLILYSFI
UniProt O15770, sequence (O15770 whole entry): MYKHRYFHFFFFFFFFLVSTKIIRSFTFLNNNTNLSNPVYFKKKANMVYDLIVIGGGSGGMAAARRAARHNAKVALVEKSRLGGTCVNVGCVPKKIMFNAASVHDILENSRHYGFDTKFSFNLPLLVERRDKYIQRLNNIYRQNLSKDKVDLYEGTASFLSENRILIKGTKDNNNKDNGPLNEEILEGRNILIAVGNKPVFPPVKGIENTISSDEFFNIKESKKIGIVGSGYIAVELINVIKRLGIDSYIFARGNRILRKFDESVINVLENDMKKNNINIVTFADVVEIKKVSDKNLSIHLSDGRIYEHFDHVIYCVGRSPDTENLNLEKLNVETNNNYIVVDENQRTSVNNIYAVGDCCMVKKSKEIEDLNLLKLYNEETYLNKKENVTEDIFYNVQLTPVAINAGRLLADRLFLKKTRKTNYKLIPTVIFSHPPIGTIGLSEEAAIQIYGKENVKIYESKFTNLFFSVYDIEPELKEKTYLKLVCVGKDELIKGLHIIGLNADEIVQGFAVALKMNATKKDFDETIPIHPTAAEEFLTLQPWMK
UniProt Q8IJX8, sequence (Q8IJX8 whole entry): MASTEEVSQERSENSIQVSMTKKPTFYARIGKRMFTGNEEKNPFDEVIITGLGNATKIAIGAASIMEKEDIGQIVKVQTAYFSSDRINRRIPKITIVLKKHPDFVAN

O=c1[nH]c2ccc(Cl)cc2c(NC2CN3CCC2CC3)c1-c1nc2ccccc2[nH]1 (stereo unspecified) [CHIR-124]
> 20 µM: [1] | [2] | [3] | [4] | [5] | [6] | [7] | [8] | [9] | [10] | [11] | [12] | [13] | [14] | [15] | [16] | [17] | [18] | [19] | [20] | [21] | [22] | [23] | [24] | [25] | [26] | [27] | [28] | [29] | [30] | [31] | [32] | [33] | [34] | [35] | [36] | [37] | [38] | [39] | [40] | [41] | [42] | [43] | [44] | [45] | [46] | [47] | [48] | [49] | [50] | [51]
